Assay results: US12690589B2, “Herbicidal compositions comprising pyroxasulfone” (BASF SE, priority 2024, dated 2026)

Key:
Test in all cases: Post-emergence application in field trials, herbicidal activity (damage scale 0 to 100%)
Format in all cases: in vivo
Zea mays (ZEAMX) = system: Zea mays (ZEAMX)
Experimental: (§1) In the examples below, using the method of S. R. Colby (1967) “Calculating synergistic and antagonistic responses of herbicide combinations”, Weeds 15, p. 22ff., the value E, which is expected if the activity of the individual active compounds is only additive, was calculated:
(§2) [formula] • wherein • X=percent activity using active herbicide A at an application rate a; • Y=percent activity using active herbicide B (e.g. pyroxasulfone) at an application rate b; • E=expected activity (in %) by A+B at application rates a+b.
(§3) For 3-component mixtures the synergistic response was calculated as described in: Ferry, Nancy; Stanley, Bruce H.; and Armel, Gregory (2005). “DESIGN AND ANALYSIS OF BIOLOGICAL ASSAYS OF MIXTURES,” Conference on Applied Statistics in Agriculture. https://doi.org/10.4148/2475-7772.1133. According to this publication, the Colby calculation can be generalized to a third mixing partner, Z, employing the following formula: […]
(§4) If the value found experimentally is higher than the value E calculated according to Colby, a synergistic effect is present.
(§5) On field test sites, natural weed infestation or seeded weeds were treated post-emergence of the weeds.
(§6) In the field trials, the weeds were treated as indicated below.
(§7) In the following experiments, the herbicidal activity for the individual herbicidal compositions (solo and mixture applications) was assessed at the indicated days after treatment (DAT). The assessments for the damage on undesired weeds caused by the composition was carried out using a scale from 0 to 100%, compared to the untreated control plants. Here, 0 means no damage and 100 means complete destruction of the plants.
(§8) Herbicide A-1 (342 g/l) and pyroxasulfone (500 g/l) were, together with addition of 0.25 v/v % MSO (methylated seed oil) as adjuvant, formulated in 200 l/ha water as distribution medium and sprayed with commercial flat fan nozzles.
(§9) Herbicide A-1 (342 g/l), pyroxasulfone (500 g/l) and trifludimoxazin (500 g/l) were, together with addition of 0.25 v/v % MSO (methylated seed oil) as adjuvant, formulated in 200 l/ha water as distribution medium and sprayed with commercial flat fan nozzles.
(§10) Herbicide A-1 (342 g/I), pyroxasulfone (500 g/l) and glyphosate-isopropylammonium (356 g/l) were, together with addition of 0.25 v/v % MSO (methylated seed oil) as adjuvant, formulated in 200 l/ha water as distribution medium and sprayed with commercial flat fan nozzles.
(§11) Herbicide A-1 (342 g/l), pyroxasulfone (500 g/l) and glufosinate-P-ammonium (211 g/l) were, together with addition of 0.25 v/v % MSO (methylated seed oil) as adjuvant, formulated in 200 l/ha water as distribution medium and sprayed with commercial flat fan nozzles.
(§12) Herbicide A-1 (342 g/l), pyroxasulfone (500 g/l) and 2,4-D-choline (456 g/l) were, together with addition of 0.25 v/v % MSO (methylated seed oil) as adjuvant, formulated in 200 l/ha water as distribution medium and sprayed with commercial flat fan nozzles.

[1] = system: Digitaria sanguinalis (DIGSA)
Experimental: as §1, §2, §3, §4, §5, §6, §7, §8, §9, §10, §11, §12

[2] = system: Lolium multiflorum (LOLMU); details: stage 22-25, height 20-25 cm
Experimental: as §1, §2, §3, §4, §5, §6, §7, §8, §9, §10, §11, §12

Cn1nc(C(F)(F)F)c(CS(=O)(=O)C2=NOC(C)(C)C2)c1OC(F)F [B, pyroxasulfone]
% Herbicidal activity (Zea mays (ZEAMX); 7 DAT, stage 15-16, height 27-33 cm, g ai/ha A-1 12.5, B 70, C-12 252): 0%
% Herbicidal activity (Zea mays (ZEAMX); 7 DAT, stage 15-16, height 27-33 cm, g ai/ha A-1 18, B 70, C-12 252): 0%
% Herbicidal activity (Zea mays (ZEAMX); 7 DAT, stage 15-16, height 27-33 cm, g ai/ha A-1 18, B 90, C-4 12.5): 0%
% Herbicidal activity (Zea mays (ZEAMX); 7 DAT, stage 15-16, height 27-33 cm, g ai/ha A-1 18, B 90, C-12 252): 0%
% Herbicidal activity (Zea mays (ZEAMX); 21 DAT, stage 15-16, height 27-33 cm, g ai/ha A-1 12.5, B 70, C-12 252): 0%
% Herbicidal activity (Zea mays (ZEAMX); 21 DAT, stage 15-16, height 27-33 cm, g ai/ha A-1 18, B 70, C-12 252): 0%
% Herbicidal activity (Zea mays (ZEAMX); 21 DAT, stage 15-16, height 27-33 cm, g ai/ha A-1 18, B 90, C-12 252): 0%
% Herbicidal activity (Zea mays (ZEAMX); 42 DAT, stage 15-16, height 27-33 cm, g ai/ha A-1 12.5, B 70, C-12 252): 0%
% Herbicidal activity (Zea mays (ZEAMX); 42 DAT, stage 15-16, height 27-33 cm, g ai/ha A-1 18, B 70, C-12 252): 0%
% Herbicidal activity (Zea mays (ZEAMX); 42 DAT, stage 15-16, height 27-33 cm, g ai/ha A-1 18, B 90, C-12 252): 0%
% Herbicidal activity (Zea mays (ZEAMX); Table 8.1, 7 DAT, stage 15-16, height 50-60 cm, g ai/ha A-1 18, B 70, C-12 1066): 5%
% Herbicidal activity (Zea mays (ZEAMX); Table 8.1, 7 DAT, stage 15-16, height 50-60 cm, g ai/ha A-1 18, B 90, C-12 1066): 5%
% Herbicidal activity (Zea mays (ZEAMX); ZEAMX, growth stage 15-16, height 40-60 cm, B 70 g ai/ha, 7 DAT, Table 4.2): 5%
% Herbicidal activity (Zea mays (ZEAMX); ZEAMX, growth stage 15-16, height 40-60 cm, B 70 g ai/ha, 21 DAT, Table 4.4): 3%
% Herbicidal activity (Zea mays (ZEAMX); ZEAMX, growth stage 15-16, height 40-60 cm, B 90 g ai/ha, 7 DAT, Table 4.2): 5%
% Herbicidal activity ([1]; 7 DAT, stage 22, height 10-15 cm, g ai/ha A-1 12.5, B 70, C-4 12.5): 0%
% Herbicidal activity ([1]; 7 DAT, stage 22, height 10-15 cm, g ai/ha A-1 18, B 70, C-4 12.5): 0%
% Herbicidal activity ([1]; 7 DAT, stage 22, height 10-15 cm, g ai/ha A-1 18, B 70, C-8 840): 0%
% Herbicidal activity ([1]; 7 DAT, stage 22, height 10-15 cm, g ai/ha A-1 18, B 70, C-12 252): 0%
% Herbicidal activity ([1]; 7 DAT, stage 22, height 10-15 cm, g ai/ha A-1 18, B 90, C-4 12.5): 0%
% Herbicidal activity ([1]; 7 DAT, stage 22, height 10-15 cm, g ai/ha A-1 18, B 90, C-8 840): 0%
% Herbicidal activity ([1]; 7 DAT, stage 22, height 10-15 cm, g ai/ha A-1 18, B 90, C-12 252): 0%
% Herbicidal activity ([1]; 21 DAT, stage 22, height 10-15 cm, g ai/ha A-1 12.5, B 70, C-4 12.5): 0%
% Herbicidal activity ([1]; 21 DAT, stage 22, height 10-15 cm, g ai/ha A-1 18, B 70, C-4 12.5): 0%
% Herbicidal activity ([1]; 21 DAT, stage 22, height 10-15 cm, g ai/ha A-1 18, B 70, C-12 252): 0%
% Herbicidal activity ([1]; 21 DAT, stage 22, height 10-15 cm, g ai/ha A-1 18, B 90, C-4 12.5): 0%
% Herbicidal activity ([1]; 21 DAT, stage 22, height 10-15 cm, g ai/ha A-1 18, B 90, C-12 252): 0%
% Herbicidal activity ([1]; 42 DAT, stage 22, height 10-15 cm, g ai/ha A-1 12.5, B 70): 0%
% Herbicidal activity ([1]; 42 DAT, stage 22, height 10-15 cm, g ai/ha A-1 12.5, B 70, C-4 12.5): 0%
% Herbicidal activity ([1]; 42 DAT, stage 22, height 10-15 cm, g ai/ha A-1 18, B 70): 0%
% Herbicidal activity ([1]; 42 DAT, stage 22, height 10-15 cm, g ai/ha A-1 18, B 70, C-4 12.5): 0%
% Herbicidal activity ([1]; 42 DAT, stage 22, height 10-15 cm, g ai/ha A-1 18, B 70, C-12 252): 0%
% Herbicidal activity ([1]; 42 DAT, stage 22, height 10-15 cm, g ai/ha A-1 18, B 90): 0%
% Herbicidal activity ([1]; 42 DAT, stage 22, height 10-15 cm, g ai/ha A-1 18, B 90, C-4 12.5): 0%
% Herbicidal activity ([1]; 42 DAT, stage 22, height 10-15 cm, g ai/ha A-1 18, B 90, C-12 252): 0%
% Herbicidal activity ([1]; DIGSA, growth stage 22, height 10-15 cm, B 70 g ai/ha, 7 DAT, Table 4.1): 0%
% Herbicidal activity ([1]; DIGSA, growth stage 22, height 10-15 cm, B 70 g ai/ha, 21 DAT, Table 4.3): 0%
% Herbicidal activity ([1]; DIGSA, growth stage 22, height 10-15 cm, B 90 g ai/ha, 7 DAT, Table 4.1): 0%
% Herbicidal activity ([1]; DIGSA, growth stage 22, height 10-15 cm, B 90 g ai/ha, 21 DAT, Table 4.3): 0%
% Herbicidal activity ([1]; Table 8.1, 7 DAT, stage 22, height 10-15 cm, g ai/ha A-1 18, B 70, C-12 1066): 0%
% Herbicidal activity ([1]; Table 8.2, 21 DAT, stage 22, height 10-15 cm, g ai/ha A-1 18, B 70, C-12 1066): 0%
% Herbicidal activity ([1]; Table 8.4, 42 DAT, stage 22, height 10-15 cm, g ai/ha A-1 18, B 70, C-12 1066): 0%
% Herbicidal activity ([2]; 7 DAT, g ai/ha A-1 12.5, B 70, C-12 252): 10%
% Herbicidal activity ([2]; 7 DAT, g ai/ha A-1 18, B 70, C-12 252): 10%
% Herbicidal activity ([2]; 7 DAT, g ai/ha A-1 18, B 90, C-12 252): 10%
% Herbicidal activity ([2]; 21 DAT, g ai/ha A-1 12.5, B 70, C-12 252): 10%
% Herbicidal activity ([2]; 21 DAT, g ai/ha A-1 18, B 70, C-12 252): 10%
% Herbicidal activity ([2]; 21 DAT, g ai/ha A-1 18, B 90, C-12 252): 10%
